Data as given in US11878965B2, “Inhibitors of peptidylarginine deiminases” (Gilead Sciences, Inc., priority 2020, dated 2024).
pIC50: −log10 of the molar value.

Target: human PAD4 (Homo sapiens (Human), UniProt Q9UM07)
Experiment: In Vitro PAD4 BAEE Biochemical Assay
Conditions: human PAD4, BAEE substrate; 5 nM PAD4, 2 mM calcium chloride, 3 mM BAEE; geometric mean of multiple experiments
Method: The PCR product was ligated into linearized pET-SUMO vector (Invitrogen, Carlsbad, CA), which is part of the Champion™ pET SUMO Protein Expression System. After sequence verification for the correct orientation, the pET-SUMO-hPAD4 expression plasmid was transformed into BL21(DE3) cells.
E. Coli BL21(DE3) cells were inoculated in LB medium with kanamycin at 37° C. until A600 nm reached about 0.5. Protein expression was induced by addition of 0.5 mM IPTG (final) and continued overnight at 16° C. at 220 rpm.
Cells were harvested by centrifugation at 5000 rpm for 10 minutes at 4° C. The pellet was resuspended in 300 ml lysis buffer (20 mM Tris-HCl, pH 8.0, 1 mM EDTA, 500 mM NaCl, 1 mM (tris(2-carboxyethyl)phosphine) (TCEP), 10% glycerol, and 1% Triton X100 and EDTA free protease inhibitor) and lysed by 3× passage through a microfluidizer (Microfluidics, Newton, MA) at 18,000 psi. The cell lysate was clarified by centrifugation at 30,000 rpm for 60 minutes at 4° C. The supernatant was applied to a 5 ml Ni-HP (GE HealthCare Cat #17524701) column preequilibrated in Ni-A buffer (20 mM Tris-HCl, pH 8.0, 20 mM Imidazole, 1 mM TCEP, 10% glycerol, and 400 mM NaCl). Bound protein was eluted with a 0-100% linear gradient of 100 mL Ni-B buffer (Ni A buffer+0.5 M Imidazole).
The His-Sumo tag was cleaved using sumo protease (Thermo Fisher Cat #: 12588018) while dialyzing in buffer (20 mM Tris-HCl, pH 8.0, 1 mM EDTA, 500 mM NaCl, 1 mM TCEP, 10% glycerol). The protein was then reloaded onto a Ni-HP column for a reverse purification step and recovered in flow through fraction. The protein with His-Sumo tag removed was then polished using a 16/60 Superdex-200 gel filtration column with gel filtration buffer (20 mM Tris pH 8.0, NaCl 400 mM and 1 mM TCEP). The fractions containing the protein were pulled and frozen at −80° C.
In Vitro PAD4 BAEE Biochemical Assay
The enzymatic activity of human PAD4 was monitored in a biochemical assay in the presence or absence of compounds using the small peptidyl arginine mimic BAEE (Nα-Benzoyl-L-arginine ethyl ester hydrochloride) as substrate. PAD4 activity led to deimination of BAEE and release of ammonia. Levels of ammonia were monitored by using an amine coupling reaction and were indicative of PAD4 enzymatic activity.
One hundred nanoliters of test compounds dissolved in DMSO at various concentrations were dispensed into a 384-well black OptiPlate using a Labcyte Echo instrument. Ten microliters of a solution of recombinant PAD4 and calcium chloride diluted in PAD4 assay buffer (50 mM MOPS [3-(N-morpholino) propanesulfonic acid], pH 7.6; 50 mM sodium chloride; 0.05% Tween-20; 2 mM dithiothreitol) was added to the compound-containing plate and was incubated for 30 minutes at 25° C. Ten microliters of a solution of BAEE (Sigma-Aldrich #B4500) diluted in PAD4 assay buffer was then added to start the reaction. Final concentrations were 5 nM PAD4, 2 mM calcium chloride, and 3 mM BAEE. The reaction mixture was incubated at 25° C. for 2 hours and was stopped with the addition of 10 microliters of a solution of 75 mM EDTA (Ethylenediaminetetraacetic acid) in PAD4 assay buffer. Thirty microliters of detection solution (5 mM o-phthalaldehyde, 50 mM MOPS [3-(N-morpholino) propanesulfonic acid], pH 7.6; 50 mM sodium chloride; 0.05% Tween-20; 5 mM dithiothreitol) was then added and the reaction was incubated for 1 hour at 25° C. The level of fluorescent thiol-substituted isoindole resulting from the reaction of ammonia, o-phthalaldehyde, and dithiothreitol was measured on an Envision plate reader (PerkinElmer) with 405 nm excitation and 535 nm emission.

Chain of human PAD4 (Q9UM07 2-663): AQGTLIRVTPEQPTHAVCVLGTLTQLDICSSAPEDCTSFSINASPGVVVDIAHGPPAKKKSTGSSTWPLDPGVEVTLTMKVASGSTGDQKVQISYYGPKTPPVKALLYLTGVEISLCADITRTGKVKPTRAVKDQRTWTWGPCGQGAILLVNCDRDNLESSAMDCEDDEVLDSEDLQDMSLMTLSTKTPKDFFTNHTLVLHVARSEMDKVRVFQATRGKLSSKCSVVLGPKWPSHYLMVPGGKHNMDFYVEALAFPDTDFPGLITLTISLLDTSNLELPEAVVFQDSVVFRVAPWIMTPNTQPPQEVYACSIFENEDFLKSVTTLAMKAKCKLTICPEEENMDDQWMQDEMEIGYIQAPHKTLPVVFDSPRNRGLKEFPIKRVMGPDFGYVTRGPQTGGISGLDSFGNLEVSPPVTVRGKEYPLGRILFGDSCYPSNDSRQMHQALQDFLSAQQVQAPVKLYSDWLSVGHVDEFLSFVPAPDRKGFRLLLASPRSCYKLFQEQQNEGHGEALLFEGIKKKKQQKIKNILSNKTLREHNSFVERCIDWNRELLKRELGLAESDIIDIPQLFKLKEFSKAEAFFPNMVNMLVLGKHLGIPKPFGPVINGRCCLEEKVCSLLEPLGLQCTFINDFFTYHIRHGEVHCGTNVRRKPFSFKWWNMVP

Row | Compound | pIC50
1 | 2-(1-(cyclopropylmethyl)- 6-((N-(difluoromethyl) methyl)sulfonamido)- 1H-pyrrolo[2,3-b]pyridin-2- yl)-6-fluoro-N-((3S,4S)- 4-fluoropiperidin- 3-yl)-1-methyl-1H- benzo[d]imidazole-5- carboxamide [Example 93] | 6.84
2 | COc1cc(C(=O)N[C@@H]2CNC[C@H]2NC(=O)/C=C/CN(C)C)cc2nc(-c3cc4ccc(N(C(F)F)S(C)(=O)=O)nc4n3CC3CC3)n(C)c12 (stereo in doubt) [Example 71, 2-[1-(cyclopropylmethyl)-6-[difluoromethyl(methylsulfonyl)amino]pyrrolo[2,3-b]pyridin-2-yl]-N-[(3R,4R)-4-[[(E)-4-(dimethylamino)but-2-enoyl]amino]pyrrolidin-3-yl]-7-methoxy-1-methyl-benzimidazole-5-carboxamide] | 6.31
3 | COc1cc(C(=O)N2CCC[C@@H](N)C2)cc2nc(-c3cc4ccc(NS(C)(=O)=O)cc4n3CC3CC3)n(C)c12 [Example 1, (R)-N-(2-(5-(3-aminopiperidine-1-carbonyl)-7-methoxy-1-methyl-1H-benzo[d]imidazol-2-yl)-1-(cyclopropylmethyl)-1H-indol-6-yl)methanesulfonamide] | 5.80
4 | COc1cc(C(=O)N2CCC[C@@H](N)C2)cc2nc(-c3cc4ccc(N(C)S(C)(=O)=O)cc4n3CC3CC3)n(C)c12 [Example 2, (R)-N-(2-(5-(3-aminopiperidine-1-carbonyl)-7-methoxy-1-methyl-1H-benzo[d]imidazol-2-yl)-1-(cyclopropylmethyl)-1H-indol-6-yl)-N-methylmethanesulfonamide] | 6.68
5 | COc1cc(C(=O)N2CCC[C@@H](N)[C@H]2C)cc2nc(-c3cc4ccc(N(C)S(C)(=O)=O)nc4n3CC3CC3)n(C)c12 [Example 4, N-(2-(5-((2R,3R)-3-amino-2-methylpiperidine-1-carbonyl)-7-methoxy-1-methyl-1H-benzo[d]imimidazol-2-yl)-1-(cyclopropylmethyl)-1H-pyrrolo [2,3-b]pyridin-6-yl)-N-methylmethanesulfonamide] | 6.83
6 | CCN(c1ccc2cc(-c3nc4cc(C(=O)N5CCC[C@@H](N)C5)cc(OC)c4n3C)n(CC3CC3)c2n1)S(C)(=O)=O [Example 5, (R)-N-(2-(5-(3-aminopiperidine-1-carbonyl)-7-methoxy-1-methyl-1H-benzo[d]imidazol-2-yl)-1-(cyclopropylmethyl)-1H-pyrrolo [2,3-b]pyridin-6-yl)-N-ethylmethanesulfonamide] | 7.10
7 | COc1cc(C(=O)N2CCC[C@@H](N)C2)cc2nc(-c3cc4ccc(N(C(C)C)S(C)(=O)=O)nc4n3CC3CC3)n(C)c12 [Example 6, (R)-N-(2-(5-(3-aminopiperidine-1-carbonyl)-7-methoxy-1-methyl-1H-benzo[d]imidazol-2-yl)-1-(cyclopropylmethyl)-1H-pyrrolo [2,3-b]pyridin-6-yl)-N-isopropylmethanesulfonamide] | 7.23
8 | CCS(=O)(=O)N(C)c1ccc2cc(-c3nc4cc(C(=O)N5CCC[C@@H](N)C5)cc(OC)c4n3C)n(CC3CC3)c2n1 [Example 7, (R)-N-(2-(5-(3-aminopiperidine-1-carbonyl)-7-methoxy-1-methyl-1H-benzo[d]imidazol-2-yl)-1-(cyclopropylmethyl)-1H-pyrrolo [2,3-b]pyridin-6-yl)-N-methylethanesulfonamide] | 6.79
9 | COc1cc(C(=O)N2CCC[C@@H](N)C2)cc2nc(-c3cc4ccc(N(Cc5ccccc5)S(C)(=O)=O)nc4n3CC3CC3)n(C)c12 [Example 11, (R)-N-(2-(5-(3-aminopiperidine-1-carbonyl)-7-methoxy-1-methyl-1H-benzo[d]imidazol-2-yl)-1-(cyclopropylmethyl)-1H-pyrrolo [2,3-b]pyridin-6-yl)-N-benzylmethanesulfonamide] | 6.72
10 | COc1cc(C(=O)N2CCC[C@@H](N)C2)cc2nc(-c3cc4ccc(N(C)S(=O)(=O)c5ccccc5)nc4n3CC3CC3)n(C)c12 [Example 12, (R)-N-(2-(5-(3-aminopiperidine-1-carbonyl)-7-methoxy-1-methyl-1H-benzo[d]imidazol-2-yl)-1-(cyclopropylmethyl)-1H-pyrrolo [2,3-b]pyridin-6-yl)-N-methylbenzenesulfonamide] | 6.65
11 | COc1cc(C(=O)N2CCC[C@@H](N)C2)cc2nc(-c3cc4ccc(N(C5CCC5)S(C)(=O)=O)nc4n3CC3CC3)n(C)c12 [Example 15, (R)-N-(2-(5-(3-aminopiperidine-1-carbonyl)-7-methoxy-1-methyl-1H-benzo[d]imidazol-2-yl)-1-(cyclopropylmethyl)-1H-pyrrolo [2,3-b]pyridin-6-yl)-N-cyclobutylmethanesulfonamide] | 6.87

More lines, now with the values ahead:

Row | pIC50 | Compound
12 | 6.91 | COc1cc(C(=O)N2CCC[C@@H](N)C2)cc2nc(-c3cc4ccc(N(C)S(C)(=O)=O)nc4n3CC3CC3)n(C)c12 [Example 3, (R)-N-(2-(5-(3-aminopiperidine-1-carbonyl)-7-methoxy-1-methyl-1H-benzo[d]imidazol-2-yl)-1-(cyclopropylmethyl)-1H-pyrrolo [2,3-b]pyridin-6-yl)-N-methylmethanesulfonamide]
13 | 6.72 | COc1cc(C(=O)N2CCC[C@@H](N)C2)cc2nc(-c3cc4ccc(N(C)S(=O)(=O)C5CC5)nc4n3CC3CC3)n(C)c12 [Example 8, (R)-N-(2-(5-(3-aminopiperidine-1-carbonyl)-7-methoxy-1-methyl-1H-benzo[d]imidazol-2-yl)-1-(cyclopropylmethyl)-1H-pyrrolo [2,3-b]pyridin-6-yl)-N-methylcyclopropanesulfonamide]
14 | 6.62 | COc1cc(C(=O)N2CCC[C@@H](N)C2)cc2nc(-c3cc4ccc(N(C)S(=O)(=O)C(C)C)nc4n3CC3CC3)n(C)c12 [Example 9, (R)-N-(2-(5-(3-aminopiperidine-1-carbonyl)-7-methoxy-1-methyl-1H-benzo[d]imidazol-2-yl)-1-(cyclopropylmethyl)-1H-pyrrolo [2,3-b]pyridin-6-yl)-N-methylpropane-2-sulfonamide]
15 | 6.48 | CCCN(c1ccc2cc(-c3nc4cc(C(=O)N5CCC[C@@H](N)C5)cc(OC)c4n3C)n(CC3CC3)c2n1)S(C)(=O)=O [Example 10, (R)-N-(2-(5-(3-aminopiperidine-1-carbonyl)-7-methoxy-1-methyl-1H-benzo[d]imidazol-2-yl)-1-(cyclopropylmethyl)-1H-pyrrolo [2,3-b]pyridin-6-yl)-N-propylmethanesulfonamide]
16 | 5.45 | COc1cc(C(=O)N2CCC[C@@H](N)C2)cc2nc(-c3cc4ccc(N(c5ccccc5)S(C)(=O)=O)nc4n3CC3CC3)n(C)c12 [Example 13, (R)-N-(2-(5-(3-aminopiperidine-1-carbonyl)-7-methoxy-1-methyl-1H-benzo[d]imidazol-2-yl)-1-(cyclopropylmethyl)-1H-pyrrolo [2,3-b]pyridin-6-yl)-N-phenylmethanesulfonamide]
17 | 6.60 | CCCCS(=O)(=O)N(C)c1ccc2cc(-c3nc4cc(C(=O)N5CCC[C@@H](N)C5)cc(OC)c4n3C)n(CC3CC3)c2n1 [Example 14, (R)-N-(2-(5-(3-aminopiperidine-1-carbonyl)-7-methoxy-1-methyl-1H-benzo[d]imidazol-2-yl)-1-(cyclopropylmethyl)-1H-pyrrolo [2,3-b]pyridin-6-yl)-N-methylbutane-1-sulfonamide]
